Molecules are shown by their SMILES. Values joined by “and” are separate entries in the source; they are usually repeats but may differ in a detail not shown here. Equal values may be shown once.

Assay type in all cases: physicochemical
A short description of series [1]: Dynamic vapor sorption / hygroscopicity. As to conditions: for hygroscopicity: DVS, class by mass gain at 85% r.h.; for solid form after DVS cycle: after the DVS humidity cycle. As for the experimental part:
Projekt Messtechnik (now ProUmid) SPS11-100n. The sample was placed on an aluminum holder on top of a microbalance and allowed to equilibrate at 50% r.h. before starting one of the following pre-defined humidity programs (1 cycle): • hold 2 h at 50% r.h., • decrease humidity −5% r.h. h^−1 for 10 h (i.e., from 50% r.h. to 0% r.h.), • hold 5 h at […]., • increase humidity +5% r.h. h^−1 for 19 h (i.e., from 0% r.h. to 95% r.h.), • hold 5 h at 95% r.h., • decrease humidity −5% r.h. h^−1 for 9 h (i.e., from 95% r.h. to 50% r.h.), • hold 2 h at 50% r.h. or • hold 2 h at 50% r.h., • increase humidity +5% r.h. h^−1 for 9 h (i.e., from 50% r.h. to 95% r.h.), • hold 5 h at 95% r.h., • decrease humidity −5% r.h. h^−1 for 19 h (i.e., from 95% r.h. to 0% r.h.), • hold 5 h at 0% r.h., • increase humidity +5% r.h. h^−1 for 10 h (i.e., from 0% r.h. to 50% r.h.), • hold 2 h at 50% r.h.
The hygroscopicity was classified based on the mass gain at 85% r.h. relative to the initial mass as follows: deliquescent (sufficient water adsorbed to form a liquid), very hygroscopic (mass increase of […]), hygroscopic (mass increase of <15% but ≥2%), slightly hygroscopic (mass increase of <2% but ≥0.2%), or non-hygroscopic (mass increase of <0.2%).

The nature of series [2]: Solubility determination (15 minutes at room temperature, HPLC). As for the experimental part: 1 mL of buffer or of ultrapure (resistivity≥18.2 Mf cm) water was added to a pre-weighed, approximately twenty milligram aliquot of the substance to be measured. The resulting suspensions were stirred for 15 minutes at room temperature with magnetic stirrers. The suspensions were centrifuged and filtered through Millipore 0.2 μm PVDF filters, and the concentration of each filtrate (i.e., saturated solution) was determined using a general HPLC method. The pH of each saturated solution was measured with a Metrohm 713 pH meter.
To assess whether Form K and Form K′ are likely to have different bioavailabilities, comparative solubility measurements were carried out in physiologically relevant media. Samples of Form K and Form K′ were separately equilibrated in pure water, pH 2.0 buffer, and pH 6.8 buffer for fifteen minutes, and the solids were then separated from the solvents. The concentration of the compound in the filtrate (i.e., the solubility) was assessed in each case, and the solid residues were also monitored by powder X-ray diffraction. All six solid residues correspond to Form K, confirming that Form K′ rapidly incorporates water into its lattice when suspended in an aqueous environment even when the solubility is low. While the solubilities in pure water and at pH 6.8 were below the limit of quantitation of 0.0001 mg/mL, the solubilities at pH 2.0 could be measured. […] Thus, the bioavailabilities of the two forms are expected to be similar, and precise control of the water content (and, thereby, the solid form) is presumably not necessary from a scientific point of view. Given that the critical water activity is in the range aH2O=0.11-0.17, the hydrated Form K is likely to be the more easily stabilized of the two forms under ambient laboratory conditions.

Series [3] is described as follows: Critical water activity of hydrochloride Form L and Form N. As to conditions: for form after slurry (XRPD): water/acetone. As for the experimental part:
Determination of critical water activity for Form L and Form N: 50 mg of Form L was suspended in 0.5-1 ml of water/acetone solution with specific water activity. The solutions were stirred at RT or 60′° C. Form conversion was monitored by XRPD over 2 weeks.

A short description of series [4]: Solid state stability under accelerated storage conditions. As for the experimental part:
Form A was not isolated directly as a wet cake but formed only upon drying of Form E in polymorphism studies. […] Small quantities of Form A were generated by dissolving a crude Compound 1 in MEK at high temperature, followed by fast cooling to room temperature, filtration and drying. DSC and TGA data were obtained for samples of Form A and following storage for 1 week at 60° C. and 60° C./75% RH. […] TGA analysis confirmed that this broad endotherm was most likely due to moisture uptake under the accelerated storage conditions. Most of the weight loss of 0.82% in this sample occurred in a single step at less than 75° C. By contrast, weigh loss was a two-step process at the initial time point. […] The residual solvent initially present in the sample was lost upon storage of the sample at 60° C. (0.13% weight loss between 25 to 150° C.).
Form B could be obtained from a process involving methyl acetate. […] HPLC traces were taken of the samples of Form B and following storage for 2 week at 60° C. and 60° C./75% RH. […] Several small degradation products were seen to grow especially in the sample stored at 60° C. Chiral instability was also observed in the sample stored at 60° C./75% RH.
Physical stability: Visually, all samples of Form K were white colored powder with no apparent change in color in the samples stored under accelerated conditions (40° C., 40° C./75% RH, 60° C., 60° C./75% RH and sample stored in light chamber in clear vials exposed to light and covered in aluminum foil) for 14 d relative to the sample stored refrigerated and under ambient conditions.
Solid state chemical stability: HPLC analysis were performed on Form K samples stored under the accelerated stability conditions. […] Based on the HPLC analysis data, there is a measurable but small change in the chemical stability of Form K under the accelerated conditions of temperature, humidity and exposure to light over the 14 d period.
Solid state chiral stability: Chiral stability of Form K samples stored under accelerated stability conditions was tested. There was ˜2.9% of the R-enantiomer (97.1 area % of the active S-isomer) in the initial sample. […]
The chiral purity (area % of S-isomer) remained […] under the accelerated stability conditions.

Series [5] in a line: Storage at controlled relative humidities (Form K / Form K′). The source says:
It was noticed that after Form K was dried, the XRPD peaks of Form K shifted to a higher value and the resulting XRPD pattern is called Form K′. To further understand the relationships between the two forms, free base Form K and Form K′ were placed on XRPD sample holders and stored in a closed Jars with saturated salt solutions for RH controls at ambient temperature, respectively. […] The XRPD diffractograms of the samples after 2-day storage are presented in FIG. 132 and FIG. 133, respectively. […] Since the peaks of Form K shifted to higher 2-theta value as Form K loses water molecules to Form K′, Form K and Form K′ are on a continuum.

Series [6] can be described thus: Solubility of polymorphic forms in physiologically relevant media and final pH. The source says: Solubility data of the several polymorphic forms of Compound 1 in physiologically relevant media and the final pH of these solutions are summarized in the following tables.
The mark [7] stands for this setting: relative humidity from about 5% to about 95%.

For `Cl.N#Cc1ccc(N2CCN(Cc3ccc(COc4cccc5c4CN(C4CCC(=O)NC4=O)C5=O)cc3)CC2)c(F)c1` (stereo not drawn), in series [1], the hygroscopicity entry is recorded as “hygroscopic (hygroscopic (mass increase of <15% but ≥2%))” and the “solid form after DVS cycle” value is given as “remains as Form A”. Besides, the DVS mass increase result in series [1] (setting [7]) is “about 11.7%”. In addition, in series [2] (water, sample changed (solid-form transformation or gel), value may not represent the initial form), the “aqueous solubility for the free base component” value is 4.1 mg/mL and 7.2 mM.

On to `Cl.N#Cc1ccc(N2CCN(Cc3ccc(COc4cccc5c4CN([C@H]4CCC(=O)NC4=O)C5=O)cc3)CC2)c(F)c1`, for which the “critical water activity (Form L to Form N)” value in series [3] (60° C.) was 0.4-0.5; in series [3] (RT), 0.2-0.4. Also, the “form after slurry (XRPD)” value in series [3] (Aw 0.1, RT) is “Form L”; in series [3] (Aw 0.2, 60° C.) it was “Form L”; in series [3] (Aw 0.2, RT), “Form L”; in series [3] (Aw 0.3, 60° C.), “Form L”; in series [3] (Aw 0.3, RT), “Form AA”; in series [3] (Aw 0.4, 60° C.), “Form L”. Also, the “form after slurry (XRPD)” value is recorded as “Form N” in series [3] (Aw 0.4, RT); “Form N” in series [3] (Aw 0.5, 60° C.); “Form N” in series [3] (Aw 0.5, RT). In addition, the hygroscopicity entry in series [1] was “slightly hygroscopic (slightly hygroscopic (mass increase of <2% but ≥0.2%))”. In series [1], the “solid form after DVS cycle” value is listed as “remains as Form L”. Moreover, the DVS mass increase entry in series [1] (relative humidity from about 0% to about 95%) was “about 0.6%”.

In the case of `N#Cc1ccc(N2CCN(Cc3ccc(COc4cccc5c4CN([C@H]4CCC(=O)NC4=O)C5=O)cc3)CC2)c(F)c1.O=S(=O)(O)c1ccccc1` [Form B of a besylate salt of Compound 1], in series [1], the hygroscopicity result is reported as “slightly hygroscopic (slightly hygroscopic (mass increase of <2% but ≥0.2%))” and the “solid form after DVS cycle” value is listed as “remains as Form B”. In addition, the DVS mass increase entry in series [1] (setting [7]) is on record as “about 1.75%”. Moreover, the “physical stability (XRPD)” value in series [4] (40° C., 40° C./75% RH, 60° C., 60° C./75% RH, and under light for 14 days) was “physically stable”. Moreover, the “chiral purity (area % of S-isomer)” value in series [4] (accelerated stability conditions, 14 days) is “above 99%”. For the same compound, the “Chemical purity (HPLC) on storage” value in series [4] (accelerated stability conditions, 14 days, peak grows with temperature and humidity) is reported as “showed degradation peak”.

As for `N#Cc1ccc(N2CCN(Cc3ccc(COc4cccc5c4CN([C@H]4CCC(=O)NC4=O)C5=O)cc3)CC2)c(F)c1` [Form D of a free base of Compound 1], in series [1] (listed as Form D), the hygroscopicity entry was “slightly hygroscopic (slightly hygroscopic (mass increase of <2% but ≥0.2%))”; the “solid form after DVS cycle” value was “a mixture of Form B and Form E”. For the same compound, in series [1] (relative humidity from about 5% to about 95%, listed as Form D), the DVS mass increase result is listed as “about 3.0%”.

As for `N#Cc1ccc(N2CCN(Cc3ccc(COc4cccc5c4CN([C@H]4CCC(=O)NC4=O)C5=O)cc3)CC2)c(F)c1` [Form K′ of a free base of Compound 1], the “form conversion on storage (XRPD)” value in series [5] (22% RH or above, ambient temperature) is given as “converts to K”. Also, in series [5] (stored at 17% r.h. and r.t. for 2.5 d), the “PXRD result after storage” value is “Form K”. Besides, in series [2] (pH 2.0 buffer, fifteen minutes), the “solubility at pH 2.0” value is given as 0.93 mg/mL. Besides, the “solid residue after solubility measurement (powder X-ray diffraction)” value in series [2] (pure water, pH 2.0 buffer and pH 6.8 buffer, fifteen minutes) is recorded as “Form K”.

For the compound `Cl.N#Cc1ccc(N2CCN(Cc3ccc(COc4cccc5c4CN([C@H]4CCC(=O)NC4=O)C5=O)cc3)CC2)c(F)c1` [HC1 Salt], the Solubility came out at 1 µg/mL in series [6] (FaSSIF); 94 µg/mL in series [6] (FeSSiF); 295 µg/mL in series [6] (SGF with pepsin); 71 µg/mL in series [6] (pH 1 buffer HC1/NaC1); 149 µg/mL in series [6] (pH 3 buffer (phosphate)); 124 µg/mL in series [6] (pH 4 buffer (acetate)). The compound further came in with a Solubility in series [6] (pH 5 buffer (acetate)) of 17 µg/mL. The “Final pH” value in series [6] (solubility sample in FaSSIF) is listed as 5.96; in series [6] (solubility sample in FeSSiF), 4.99; in series [6] (solubility sample in SGF with pepsin) it was 1.28; in series [6] (solubility sample in pH 1 buffer HC1/NaC1), 1.05; in series [6] (solubility sample in pH 3 buffer (phosphate)), 3.05; in series [6] (solubility sample in pH 4 buffer (acetate)), 4.00. In series [6] (solubility sample in pH 5 buffer (acetate)), the “Final pH” value was 4.83.
